Measured values as given in publication PMC7546004, “Targeting BCL10 by small peptides for the treatment of B cell lymphoma” (Theranostics, 2020).
Square brackets hold non-standard residues; d marks the D form. Peptide text beside a SMILES is read from it.

Legend:
[1] = biological target: T1, BCL10 (Homo sapiens, UniProt O95999); experiment: In vitro BCL10 filamentation assay (negative-stain electron microscopy); assay type: biochemical; details: MBP-BCL10 and peptide premixed at 1:1 or 1:2 molar ratio, RT 30 min, then TEV cleavage
T1 sequence (O95999 1-233): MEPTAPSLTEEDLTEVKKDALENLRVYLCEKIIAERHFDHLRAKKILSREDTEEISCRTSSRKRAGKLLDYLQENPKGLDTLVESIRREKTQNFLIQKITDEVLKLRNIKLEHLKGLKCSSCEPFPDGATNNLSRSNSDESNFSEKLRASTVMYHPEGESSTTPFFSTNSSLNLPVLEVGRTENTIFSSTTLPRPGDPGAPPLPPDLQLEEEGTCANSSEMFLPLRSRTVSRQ
Method: MBP-BCL10 was expressed and purified as previously described. MBP-BCL10 and BCL10 peptide inhibitors were premixed at a 1:1 or 1:2 molar ratio at RT for 30 minutes before adding TEV to cleave the MBP tag. 5 μL of reaction mixture was applied to copper grids (Beijing Zhongjingkeyi Technology Co., Cat. No. BZ10024a), where it remained for 1 minute and was then negatively stained with 3% uranyl acetate for 1 minute, air-dried and imaged with a JEM-1230 TEM at 100 keV.

[2] = tested on: SU-DHL6 cell xenograft tumors; experiment: Mouse xenograft model; assay type: in vivo, NCG mice; details: DRI-BCL10-P4 10 mg/kg Q.d. or BCL10-Ctl 5 mg/kg Q.d., i.v.; n=8; p=0.049, Mann-Whitney U test
Method: (§1) Mouse xenograft experiments:
(§2) Six-week-old female NOD prkdc-/- IL-2Rg-/- (NCG) mice purchased from GemPharmatech Co., Lt d we re raised in a SPF- level Laboratory Animal Room. Low -passage 5x106 human TMD8, SU-DHL- 6 or 1x10^7 OCl-LY1 cells at 100μl were premixed with 100μl Matrigel (Corning Biocoat, cat. # 354234) and inoculated subcutaneously into the right flank of mice. When tumors reached an average size of 150 mm3, mice were randomly assigned into treatment groups (10 mg /kg DRI-BCL10- P4) or control groups (5 mg /kg BCL10- Ctl). Peptides were reconstituted in 5% DMSO/PBS and administered by i.v. injection. Tumor volumes were monitored by a digital caliper every other day and calculated using the formula: (smallest diameter2 x largest diameter)/2. Mice were weighed every day and sacrificed at the end of the treatment. T umors and main organs were harvested and we i ghte d at the moment of death. All animal experiments were approved by the Animal Institute Committee of Changhai Hospital, the Second Military Medical University.
(§3) Immunohistochemistry (IHC)
(§4) Formalin-fixed paraffin -embedded tumor xenografts were sectioned, dewaxed and submitted to antigen retrieval. The anti- Ki67 (proteintech, 27309-1) antibody was used at a 1:500 dilution.
(§5) Biotin-conjugated secondary antibodies (MXB biotechnologies, KIT-9710) were used. […]

[3] = Tolerability in xenograft mice (body weight, histology of major organs); assay type: in vivo, NCG mice
Method: as §1, §2, §3, §4, §5

[4] = tested on: TMD8 cells; assay type: cell-based, human
Description: GraphPad Prism software was used to determine GI50 values.

[5] = tested on: NF-κB signalling pathway; experiment: Western blot of NF-κB pathway proteins (IKKβ, p-IKKβ, IκBα, p-IκBα); assay type: cell-based; details: 12 h, indicated concentrations; Figure 6E
Method: Cell pellets were lysed in RIPA buffer (50 mM Tris at pH 8.0, 150 mM NaCl, 1% NP-40, 1 mM EDTA, and 1X protease inhibitor cocktail) or RIPA buffer containing 0.1% SDS. Equal amounts of protein extracts were separated by SDS-PAGE and blotted onto polyvinylidene difluoride (PVDF) membranes. The following Antibodies were purchased and used in this study: anti-IκBα (10268-1), anti-IKKβ (20979-1), anti-Bcl2 (12789-1-AP), anti-GAPDH (10494-1-AP), and anti-β-actin (66009-1-AP) were from Proteintech; anti-p-IκBα (2859S), anti-p-IKKβ (2697S), anti-RelB (10544), anti-α-tubulin (5335), anti-PARP (9532S), and anti-CARMA1 (4435) were from Cell Signaling Technology; anti-β-actin (A1978) was from Sigma; anti-Bcl10 (A1106) was from ABclonal; anti-A20 (sc-166692), anti-CYLD (sc-74435), and anti-MALT1 (sc-46677) were from Santa Cruz; anti-HOIL-1 (HPA024185) was from Atlas Antibodies; and anti-Myc (ab9106) was from Abcam.

[6] = tested on: OCI-LY1 cell xenograft tumors; experiment: Mouse xenograft model; assay type: in vivo, NCG mice; details: DRI-BCL10-P4 10 mg/kg or BCL10-Ctl 5 mg/kg daily, i.v.; Figure S8A-C
Method: as §1, §2, §3, §4
(§6) Biotin-conjugated secondary antibodies (MXB biotechnologies, KIT-9710) were used. Then avidin/biotin peroxidase (MXB biotechnologies, KIT-9710) was applied to the slides. Color was developed with diaminobenzoate chromogen peroxidase substrate (MXB biotechnologies, MAX007TM) and counterstained with […] (MXB biotechnologies, MAX007TM). Pictures were obtained using NanoZoomer-S60 microscope ([…]).
(§7) Terminal deoxynucleotidyl transferase dUTP nick end labeling, TUNEL assay was used to detect apoptotic DNA fragmentation. All the experiments were performed according to the kit (KeyGEN Biotech, KGA703) instructions. Briefly, formalin-fixed paraff i n-embedded xenografted tumors were deparaffinized and pre-treated with trypsin to expose DNA. Endogenous peroxidase was quenched using 3% hydrogen peroxide followed by incubation with TdT enzyme for 1 hour. Then, antidigoxigenin-peroxidase was applied to the slides. Color was developed with diaminobenzoate chromogen peroxidase substrate and counterstained with methyl green. Pictures were obtained using NanoZoomer-S60 microscope ([…]).

[7] = tested on: TMD8 cell xenograft tumors; experiment: Mouse xenograft model; assay type: in vivo, NCG mice
Method: as §1, §2, §3, §4, §6, §7

[8] = TMD8 xenograft, 10 mg/kg, compared with control group

CC[C@@H](C)[C@@H](NC(=O)[C@@H](CCCCN)NC(=O)[C@H](NC(=O)[C@@H](Cc1c[nH]c2ccccc12)NC(=O)[C@@H](Cc1ccccc1)NC(=O)[C@@H](CCC(N)=O)NC(=O)[C@@H](CC(N)=O)NC(=O)[C@@H](CCCNC(=N)N)NC(=O)[C@@H](CCCNC(=N)N)NC(=O)[C@@H](CCSC)NC(=O)[C@@H](CCCCN)NC(=O)[C@@H](Cc1c[nH]c2ccccc12)NC(=O)[C@@H](CCCCN)NC(=O)[C@@H](CCCCN)NC(=O)[C@@H](CCCNC(=N)N)NC(=O)[C@H](NC(=O)[C@@H](CO)NC(=O)[C@@H](CO)NC(=O)[C@@H](CCCNC(=N)N)NC(=O)[C@@H](CCCCN)NC(=O)[C@@H](CCCNC(=N)N)NC(=O)[C@@H](C)NC(=O)CNC(=O)[C@@H](CCCCN)NC(=O)[C@@H](CC(C)C)NC(=O)[C@@H](CC(C)C)NC(=O)[C@@H](CC(=O)O)NC(=O)[C@@H](Cc1ccc(O)cc1)NC(=O)[C@@H](CC(C)C)NC(=O)[C@@H](CCC(N)=O)NC(=O)[C@H](N)CCC(=O)O)[C@H](C)O)[C@H](C)CC)C(=O)N[C@H](CCC(N)=O)C(=O)N[C@H](CCCNC(=N)N)C(=O)N[C@H](CC(=O)O)C(=O)O [DRI-BCL10-P4] (H-[dE][dQ][dL][dY][dD][dL][dL][dK]G[dA][dR][dK][dR][dS][dS][dT][dR][dK][dK][dW][dK][dM][dR][dR][dN][dQ][dF][dW][dI][dK][dI][dQ][dR][dD]-OH)
BCL10 filament formation (EM) [1]: effectively disrupted BCL10 filament formation | growth of SU-DHL6 cell xenograft tumors [2]: significantly inhibited the growth | adverse effects in the mice (body weight) ([3]; 10 mg/kg Q.d., i.v., Figure 7C-F): without inducing notable adverse effects | histological examination of the major organs (H&E) ([3]; 10 mg/kg daily for 11 days, Figure S8D): did not result in discernible damage to these organs | GI50 [4]: 11.9 ± 6.2 µM | NF-κB pathway activation in HBL1 and TMD8 cells [5]: repressed NF-κB pathway activation | NF-κB pathway activation in OCI-LY1 cells [5]: but not in OCI-LY1 cells | growth of OCI-LY1 cell xenograft tumors [6]: neither peptide significantly suppressed the growth | growth of TMD8 cell xenograft tumors ([7]; DRI-BCL10-P4 10 mg/kg Q.d. or BCL10-Ctl 5 mg/kg Q.d., i.v., n=8, p=0.013, Mann-Whitney U test): significantly inhibited the growth | apoptosis rate in tumor sections (TUNEL staining) [7, 8]: significant increase in the apoptosis rate | proliferation in tumor sections (Ki67 staining) [7, 8]: significant decrease in the proliferation
